Assay results as given in patent US5928910A, “Antifungal substances BE-49385 and process for their production” (Banyu Pharmaceutical Co., Ltd., priority 1995, dated 1999).
In brackets after ≈: the same amount, converted by molar mass.

Experiments:
[1] = test system: Kluyveromyces lactis IFO 1267; assay: MIC by agar dilution method, Kluyveromyces lactis IFO 1267; format: cell-based; details: IFO1267, 72 h, 28° C., 3 days, read-out: MIC (minimum inhibitory concentration)
Description: (§1) The minimum inhibitory concentrations of antifungal substances BE-49385 against various fungi were measured. The measurement of MIC was carried out by an agar dilution method using a culture medium prepared by mixing 900 ml of an agar solution containing 2.5 g of sterilized dipotassium hydrogenphosphate and 15 g of agar, with a solution obtained by dissolving 6.7 g of a yeast nitrogen base (manufactured by Difico Co.) and 10 g of glucose in 100 ml of purified water, followed by sterilization by means of sterilizing filter. BE-49385 was dissolved in dimethylsulfoxide to a concentration of 10 mg/ml and further diluted with dimethylsulfoxide to obtain a twice diluted series, and the dimethylsulfoxide concentration in the agar plate was adjusted to be 1%. On the prepared agar plate, 5 μl of the test strain solution adjusted to a concentration of 10^6 cells per 1 ml, was dropped, followed by culturing at 28° C. for 3 days, whereupon the growth was evaluated.
(§2) The minimum inhibitory concentrations (MIC, unit: μ g/ml) of antifungal substance BE-49385A against various fungi, are shown in Table 1, and MICs of BE-49385 substances against Schizosaccharomyces pombe IAM4863 are shown in Table

[2] = test system: Saccharomyces cerevisiae IFO 1267; assay: MIC by agar dilution method, Saccharomyces cerevisiae IFO 1267; format: cell-based; details: IFO1267, 72 h, 28° C., 3 days, read-out: MIC (minimum inhibitory concentration)
Description: as §1, §2

[3] = test system: Candida albicans IFO 1385; assay: MIC by agar dilution method, Candida albicans IFO 1385; format: cell-based; details: IFO1385, 72 h, 28° C., 3 days, read-out: MIC (minimum inhibitory concentration)
Description: as §1, §2

[4] = test system: Candida albicans IFO 1270; assay: MIC by agar dilution method, Candida albicans IFO 1270; format: cell-based; details: IFO1270, 72 h, 28° C., 3 days, read-out: MIC (minimum inhibitory concentration)
Description: as §1, §2

[5] = test system: Penicillium chrysogenum IFO 6223; assay: MIC by agar dilution method, Penicillium chrysogenum IFO 6223; format: cell-based; details: IFO6223, 72 h, 28° C., 3 days, read-out: MIC (minimum inhibitory concentration)
Description: as §1, §2

[6] = test system: Aspergillus niger IFO 31012; assay: MIC by agar dilution method, Aspergillus niger IFO 31012; format: cell-based; details: IFO31012, 72 h, 28° C., 3 days, read-out: MIC (minimum inhibitory concentration)
Description: as §1, §2

[7] = test system: Schizosaccharomyces pombe IAM4863; assay: MIC by agar dilution method, Schizosaccharomyces pombe IAM4863; format: cell-based; details: 72 h, 28° C., 3 days, read-out: MIC (minimum inhibitory concentration)
Description: as §1, §2

Solubility = format: physicochemical

Compound	MIC [1] [µg/mL]	MIC [2] [µg/mL]	MIC [3] [µg/mL]	MIC [4] [µg/mL]	MIC [5] [µg/mL]	MIC [6] [µg/mL]	MIC [7] [µg/mL]	Solubility in an organic solvent such as methanol or dimethylsulfoxide (Solubility)	Solubility in water (Solubility)
C=C1C2CC3C(C(C)C)C(OC(=O)CC(C)(O)CC(C)CC)CC3(C)CC2C(C)=CCC2C(C)OC(=O)C(O)C12O (stereo not drawn) [BE-49385A]	0.78 (≈ 1.36 µM)	3.13 (≈ 5.45 µM)	3.13 (≈ 5.45 µM)	0.78 (≈ 1.36 µM)	0.39 (≈ 0.678 µM)	0.78 (≈ 1.36 µM)	< 0.1	Readily soluble	hardly soluble
C=C1C2CC3C(C(C)C)C(OC(=O)CC(C)(O)CC(C)CC)CC3(C)CC2C(C)=CCC2C(C)OC(=O)C(OC(C)=O)C12O (stereo not drawn) [BE-49385A-Ac]	–	–	–	–	–	–	–	Readily soluble	hardly soluble
C=C1C2CC3C(C(C)C)C(OC(=O)C(O)c4ccccc4)CC3(C)CC2C(C)=CCC2C(C)OC(=O)C(O)C12O (stereo not drawn) [BE-49385D]	–	–	–	–	–	–	0.78 (≈ 1.41 µM)	Readily soluble	hardly soluble
C=C1C2CC3C(C(C)C)C(OC(=O)C(O)CC(C)CC(C)CC)CC3(C)CC2C(C)=CCC2C(C)OC(=O)C(O)C12O (stereo not drawn) [BE-49385B]	–	–	–	–	–	–	0.39 (≈ 0.662 µM)	Readily soluble	hardly soluble
C=C1C2CC3C(C(C)C)C(OC(=O)CC(C)CC(C)CC)CC3(C)CC2C(C)=CCC2C(C)OC(=O)C(O)C12O (stereo not drawn) [BE-49385C]	–	–	–	–	–	–	0.39 (≈ 0.698 µM)	Readily soluble	hardly soluble

Continued, values first:

MIC [1] [µg/mL]	MIC [2] [µg/mL]	MIC [3] [µg/mL]	MIC [4] [µg/mL]	MIC [5] [µg/mL]	MIC [6] [µg/mL]	MIC [7] [µg/mL]	Solubility in an organic solvent such as methanol or dimethylsulfoxide (Solubility)	Solubility in water (Solubility)	Compound
–	–	–	–	–	–	–	Readily soluble	hardly soluble	C=C1C2CC3C(C(C)C)C(O)CC3(C)CC2C(C)=CCC2C(C)OC(=O)C(O)C12O (stereo not drawn) [BE-49385F]
–	–	–	–	–	–	–	Readily soluble	hardly soluble	C=C1C2CC3C(C(C)C)C(OC(=O)C(O)C(O)C(C)CC(C)CC)CC3(C)CC2C(C)=CCC2C(C)OC(=O)C(O)C12O (stereo not drawn) [BE-49385H]
–	–	–	–	–	–	0.2 (≈ 0.339 µM)	Readily soluble	hardly soluble	C=C1C2CC3C(C(C)C)C(OC(=O)C(O)C(C)(O)CC(C)CC)CC3(C)CC2C(C)=CCC2C(C)OC(=O)C(O)C12O (stereo not drawn) [BE-49385E]
–	–	–	–	–	–	0.39 (≈ 0.66 µM)	Readily soluble	hardly soluble	C=C1C2CC3C(C(C)C)C(OC(=O)C(O)C(O)CCC(C)CC)CC3(C)CC2C(C)=CCC2C(C)OC(=O)C(O)C12O (stereo not drawn) [BE-49385G]
